These results are taken from ChEMBL document CHEMBL6153110, “Peptide Double-Stapling and Arginine N-Glycosylation Triggered the Development of Therapeutic Antimicrobial Peptides Capable of Killing Drug-Resistant Bacteria in Mice” (J Med Chem, 2025).

Series [1] deals with Cell membrane. Kind of series: Binding affinity to Klebsiella pneumoniae ATCC 13883 cell membrane treated with FITC labelled peptides at MIC measured after 1.5 hr by CLSM imaging analysis. Type of series: subcellular.
The subject of series [2] is Staphylococcus aureus. Kind of series: In vivo antibacterial activity against methicillin-resistant Staphylococcus aureus ATCC 43300 infected locally in full thickness skin wound mouse model assessed as clean and less exudate at 1 mg/kg treated with absorbable gelatin sponge measured on early healing stage. Type of series: functional, organism-based. To be noted: route id.

The subject of series [3] is Klebsiella pneumoniae. Kind of series: Antibiofilm activity in Klebsiella pneumoniae ATCC 13883 assessed as reduction in biofilm formation at 4.6 ug/ml measured after 24 hrs by crystal violet staining based assay relative to control. The format is functional. The arrangement: scale not given: the % may be the effect or the level left. To be noted: dose 4.6 µg/ml.
In series [4] the test system is Klebsiella pneumoniae. Briefly: In vivo antibacterial activity against Klebsiella pneumoniae ATCC 13883 induced bacterial pneumonia mouse model assessed as increase in survival of mouse at 1 mg/kg, injected into trachea after 24 hrs of infection measured after 3 to 7 days. The format is functional, organism-based.
Series [5] has as its system Klebsiella pneumoniae. Kind of series: In vivo antibacterial activity against Klebsiella pneumoniae ATCC 13883 induced bacterial pneumonia mouse model assessed as reduction in bacterial load in lungs at 1 mg/kg, injected into trachea after 24 hrs of infection measured after 3 to 7 days. The format is functional, organism-based.
Series [6] concerns Cell membrane. Briefly: Induction of cell membrane damage in methicillin-resistant Staphylococcus aureus ATCC 43300 assessed as increase in red fluorescence at MIC measured after 1 hr incubation by PI based flow cytometry. The format is subcellular.
Series [7] has as its system Klebsiella pneumoniae. Briefly: Antimicrobial activity against Klebsiella pneumoniae ATCC 13883 assessed as growth inhibition measured after 8 hrs incubation by standard broth dilution assay. Type of series: functional.
A short description of series [8]: Hemolytic activity in BALB/c mouse red blood cells assessed as hemolysis incubated for 1 hrs. Conditions: read-out: HD50. Type of series: toxicity, cell-based, Erythrocyte.
For series [9], the system named is Klebsiella pneumoniae. Kind of series: In vivo antibacterial activity against Klebsiella pneumoniae ATCC 13883 induced bacterial pneumonia mouse model assessed as increase in survival of mouse at 4 mg/kg, injected into trachea after 24 hrs of infection measured after 3 to 7 days. The format is functional, organism-based.
For series [10], the system named is Cell membrane. Briefly: Induction of cell membrane damage in methicillin-resistant Staphylococcus aureus ATCC 43300 assessed as significant plasma membrane rupture, […], and cytoplasmic leakage at MIC measured after 1 hr incubation by Transmission electron microscopy. The format is subcellular.
For series [11], the system named is Staphylococcus aureus. Briefly: In vivo antibacterial activity against methicillin-resistant Staphylococcus aureus ATCC 43300 infected locally in full thickness skin wound mouse model assessed as reduction in bacterial load in skin wound at 4 mg/kg treated with absorbable gelatin sponge measured after 3 days. Type of series: functional, organism-based. Conditions: time 3.0 day.

Series [12] relates to Klebsiella pneumoniae. Briefly: In vivo antibacterial activity against Klebsiella pneumoniae ATCC 13883 induced bacterial pneumonia mouse model assessed as reduction in bacterial infection induced IL-6 level in lung tissue at 4 mg/kg, injected into trachea after 24 hrs of infection measured after 3 to 7 days. Type of series: functional, organism-based.
Series [13] has as its system Cell membrane. Briefly: Induction of cell membrane damage in Klebsiella pneumoniae ATCC 13883 assessed as increase in red fluorescence at MIC measured after 1 hr incubation by PI based flow cytometry. The format is subcellular. In general terms: A flow cytometer gives signals particle by particle.
For series [14], the system named is Streptococcus pneumoniae. Briefly: Antimicrobial activity against Streptococcus pneumoniae ATCC 49619 assessed as growth inhibition measured after 8 hrs incubation by standard broth dilution assay. Type of series: functional.
The subject of series [15] is Klebsiella pneumoniae. Kind of series: In vivo antibacterial activity against Klebsiella pneumoniae ATCC 13883 induced bacterial pneumonia mouse model assessed as reduction in bacterial infection induced weight loss at 4 mg/kg, injected into trachea after 24 hrs of infection measured after 3 to 7 days. Type of series: functional, organism-based.
Series [16] deals with Staphylococcus aureus. Kind of series: Antimicrobial activity against methicillin-resistant Staphylococcus aureus ATCC 43300 assessed as growth inhibition measured after 8 hrs incubation by standard broth dilution assay. Type of series: functional.
For series [17], the system named is Klebsiella pneumoniae. Kind of series: In vivo antibacterial activity against Klebsiella pneumoniae ATCC 13883 induced bacterial pneumonia mouse model assessed as reduction in bacterial infection induced weight loss at 1 mg/kg, injected into trachea after 24 hrs of infection measured after 3 to 7 days. Type of series: functional, organism-based.

One may read the MIC as the smallest concentration in the dilution series that meets the test's criterion for growth inhibition.

≈ marks a conversion by molar mass, not a printed value. Calls of active or inactive are those of the source. Positions of bridges follow the written chain, without caps; N, C: chain ends. Non-standard residues stand in square brackets, D forms with d. Residues, ends and D or L forms follow the SMILES beside them. Arg(Nω-βLac) = N=C(NCCC[C@H](N)C(=O)O)N[C@@H]1O[C@H](CO)[C@@H](O[C@@H]2O[C@H](CO)[C@H](O)[C@H](O)[C@H]2O)[C@H](O)[C@H]1O; S5 = C=CCCC[C@](C)(N)C(=O)O

For `CC(=O)N[C@@H](CCCCN)C(=O)N[C@@H](CCCCN)C(=O)N[C@@H](CCCNC(=N)N)C(=O)N[C@H](C(=O)N[C@@H](CCCCN)C(=O)N[C@@H](CCCCN)C(=O)N[C@@H](CCCNC(=N)N)C(=O)N[C@@]1(C)CCC/C=C\CCC[C@@](C)(C(=O)N[C@@H](CCCCN)C(=O)N[C@@]2(C)CCC/C=C\CCC[C@@](C)(C(=O)N[C@@H](CC(C)C)C(=O)N[C@@H](CCCCN)C(=O)N[C@@H](CCCCN)C(=O)N3CCC[C@H]3C(=O)N[C@H](C(=O)N[C@@H](CCCNC(=N)N[C@@H]3O[C@H](CO)[C@@H](O[C@@H]4O[C@H](CO)[C@H](O)[C@H](O)[C@H]4O)[C@H](O)[C@H]3O)C(N)=O)C(C)C)NC(=O)[C@H](CCCNC(=N)N)NC(=O)[C@H](Cc3c[nH]c4ccccc34)NC(=O)[C@H](Cc3ccc(O)cc3)NC2=O)NC(=O)[C@H](CC(C)C)NC(=O)[C@H](CCCCN)NC(=O)[C@H](Cc2ccccc2)NC1=O)C(C)C` (Ac-KKRVKKR[S5]FKL[S5]K[S5]YWR[S5]LKKPV[Arg(Nω-βLac)]-NH2; staple (Z) 8-12, 14-18), the Activity result in series [1] was “Active; Compound Exhibited Brighter Red”; in series [2] it was “Active; Model Group Showed Yellowish Compared With The Wounds Treated With Compound”; in series [3] it was 98.18%; in series [5] it was “Active; Compound Showed Superior Therapeutic Effect Than Slp-0”. Moreover, the result in series [4], in series [6], in [9], in [10], in series [11] and in series [12] was Active. The outcome in series [13], in [15] and in [17] was Active. Also, the MIC in series [7], in [14] and in [16] was 1.1 µg/mL (≈ 0.31 µM) each time. Further, in series [8], the HC50 at 1 h stood at 87.6 µg/mL.
